A word on the melting point: it is the temperature, or range, at which the solid turns liquid.

The molecule `Cn1nc(-c2ccc(F)cc2)cc1-c1ccc2c(c1)C[C@H]1CC[C@@H](C2)[C@]12CN(CC(F)(F)F)S(=O)(=O)N2` (single isomer, unassigned) [Example 15] returned a melting point of 185 °C.

The values are drawn from patent US7282513B2, “Heteroaryl substituted spirocyclic sulfamides for inhibition of gamma secretase” (Merck Sharp & Dohme Limited, priority 2002, dated 2007).
